Assay results: paper PMC5564600 (Oncotarget, 2017)

Assays:
Test in all cases: biochemical
Assay type in all cases: binding
panel of 442 kinases [1] = target: T1, panel of 442 kinases (Homo sapiens, UniProt O43293); details: DAPK3; for remaining activity at 1 µM: read-out: % of control at 1 µM
T1 construct: purchased Ambit Biosciences (scanMAXX KINOMEscan)

panel of 442 kinases [2] = target: T2, panel of 442 kinases (Homo sapiens, UniProt O95835); details: kinase LATS1; for remaining activity at 1 µM: read-out: % of control at 1 µM
T2 construct: purchased Ambit Biosciences (scanMAXX KINOMEscan)
T2 sequence (O95835 1-1130): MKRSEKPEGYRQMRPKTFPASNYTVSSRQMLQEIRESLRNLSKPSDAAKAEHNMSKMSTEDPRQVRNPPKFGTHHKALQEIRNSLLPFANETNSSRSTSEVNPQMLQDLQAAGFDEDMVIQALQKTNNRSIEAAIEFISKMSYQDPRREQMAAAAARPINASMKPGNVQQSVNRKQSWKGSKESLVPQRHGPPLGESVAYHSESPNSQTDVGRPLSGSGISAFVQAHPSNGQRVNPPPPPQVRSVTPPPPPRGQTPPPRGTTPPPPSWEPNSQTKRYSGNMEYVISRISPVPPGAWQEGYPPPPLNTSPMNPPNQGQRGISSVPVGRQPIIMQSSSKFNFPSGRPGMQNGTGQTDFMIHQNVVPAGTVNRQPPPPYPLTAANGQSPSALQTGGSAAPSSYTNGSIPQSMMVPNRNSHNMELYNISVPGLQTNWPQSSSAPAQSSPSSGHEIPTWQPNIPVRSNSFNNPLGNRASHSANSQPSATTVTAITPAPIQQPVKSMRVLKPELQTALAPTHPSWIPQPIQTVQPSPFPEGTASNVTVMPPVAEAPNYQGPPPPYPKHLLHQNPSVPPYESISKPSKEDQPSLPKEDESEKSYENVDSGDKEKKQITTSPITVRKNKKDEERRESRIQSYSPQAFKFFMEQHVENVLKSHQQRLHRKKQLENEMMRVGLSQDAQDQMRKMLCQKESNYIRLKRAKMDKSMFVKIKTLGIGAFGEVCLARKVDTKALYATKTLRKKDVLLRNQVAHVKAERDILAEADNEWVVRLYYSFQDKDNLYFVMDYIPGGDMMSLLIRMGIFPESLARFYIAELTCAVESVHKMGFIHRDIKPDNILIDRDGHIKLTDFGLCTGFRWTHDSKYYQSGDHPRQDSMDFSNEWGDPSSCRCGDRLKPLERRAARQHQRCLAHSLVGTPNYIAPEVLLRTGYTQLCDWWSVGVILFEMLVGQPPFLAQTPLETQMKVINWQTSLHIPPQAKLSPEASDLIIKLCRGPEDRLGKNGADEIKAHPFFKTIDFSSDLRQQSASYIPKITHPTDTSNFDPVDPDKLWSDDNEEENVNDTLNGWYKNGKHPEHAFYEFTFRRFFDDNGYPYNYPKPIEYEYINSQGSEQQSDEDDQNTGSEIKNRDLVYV

panel of 442 kinases [3] = target: T3, panel of 442 kinases (Homo sapiens, UniProt Q9NRP7); details: kinase STK36; for remaining activity at 1 µM: read-out: STK36 (% of control at 1 µM)
T3 construct: purchased Ambit Biosciences (scanMAXX KINOMEscan)
T3 sequence (Q9NRP7 1-1315): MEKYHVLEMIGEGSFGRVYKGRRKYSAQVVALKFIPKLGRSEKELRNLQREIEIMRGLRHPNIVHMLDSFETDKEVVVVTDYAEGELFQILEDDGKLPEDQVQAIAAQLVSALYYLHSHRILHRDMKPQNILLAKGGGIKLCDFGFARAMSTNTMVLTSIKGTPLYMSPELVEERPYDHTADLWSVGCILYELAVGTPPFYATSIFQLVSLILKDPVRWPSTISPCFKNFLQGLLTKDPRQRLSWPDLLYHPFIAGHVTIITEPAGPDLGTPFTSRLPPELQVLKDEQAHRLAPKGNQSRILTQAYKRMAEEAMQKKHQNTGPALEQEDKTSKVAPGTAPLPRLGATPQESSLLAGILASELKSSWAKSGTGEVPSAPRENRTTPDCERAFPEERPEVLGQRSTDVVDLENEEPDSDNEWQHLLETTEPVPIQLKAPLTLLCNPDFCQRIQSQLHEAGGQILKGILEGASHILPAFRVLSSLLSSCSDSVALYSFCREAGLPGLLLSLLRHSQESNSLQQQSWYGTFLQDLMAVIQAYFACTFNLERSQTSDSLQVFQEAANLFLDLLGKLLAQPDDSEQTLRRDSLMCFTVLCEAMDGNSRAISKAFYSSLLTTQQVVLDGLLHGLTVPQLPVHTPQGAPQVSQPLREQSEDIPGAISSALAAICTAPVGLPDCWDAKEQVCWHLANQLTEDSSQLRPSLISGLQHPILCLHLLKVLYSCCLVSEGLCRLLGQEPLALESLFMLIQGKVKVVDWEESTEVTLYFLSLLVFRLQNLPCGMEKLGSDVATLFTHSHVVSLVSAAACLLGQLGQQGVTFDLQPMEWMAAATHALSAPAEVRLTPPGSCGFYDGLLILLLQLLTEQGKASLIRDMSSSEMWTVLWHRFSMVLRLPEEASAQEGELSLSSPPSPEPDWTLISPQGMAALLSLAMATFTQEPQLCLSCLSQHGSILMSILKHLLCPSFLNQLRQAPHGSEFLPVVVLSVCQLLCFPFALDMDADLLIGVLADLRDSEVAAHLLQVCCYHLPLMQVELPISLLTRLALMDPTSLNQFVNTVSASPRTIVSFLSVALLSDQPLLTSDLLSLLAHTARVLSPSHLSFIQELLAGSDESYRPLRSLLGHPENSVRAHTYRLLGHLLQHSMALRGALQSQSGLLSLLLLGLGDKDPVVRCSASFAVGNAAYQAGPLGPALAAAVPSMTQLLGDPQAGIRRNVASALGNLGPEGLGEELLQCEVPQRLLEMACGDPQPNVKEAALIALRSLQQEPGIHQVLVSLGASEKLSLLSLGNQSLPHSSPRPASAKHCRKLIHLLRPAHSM

panel of 442 kinases [4] = target: T4, panel of 442 kinases (Homo sapiens, UniProt Q9UQB9); details: AURKC; for remaining activity at 1 µM: read-out: % of control at 1 µM
T4 construct: purchased Ambit Biosciences (scanMAXX KINOMEscan)
T4 sequence (Q9UQB9 1-309): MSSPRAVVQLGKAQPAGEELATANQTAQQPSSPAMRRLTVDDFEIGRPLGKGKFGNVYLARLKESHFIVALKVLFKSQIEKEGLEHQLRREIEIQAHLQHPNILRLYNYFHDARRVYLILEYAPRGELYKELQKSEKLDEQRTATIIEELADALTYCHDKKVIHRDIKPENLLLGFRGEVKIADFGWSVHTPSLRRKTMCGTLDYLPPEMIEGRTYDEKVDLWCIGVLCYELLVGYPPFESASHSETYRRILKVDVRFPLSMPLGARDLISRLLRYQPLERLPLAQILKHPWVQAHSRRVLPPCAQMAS

panel of 442 kinases [5] = target: T5, panel of 442 kinases (Homo sapiens, UniProt Q9Y6R4); details: kinase MAP3K4; for remaining activity at 1 µM: read-out: % of control at 1 µM
T5 construct: purchased Ambit Biosciences (scanMAXX KINOMEscan)
T5 sequence (Q9Y6R4 whole entry): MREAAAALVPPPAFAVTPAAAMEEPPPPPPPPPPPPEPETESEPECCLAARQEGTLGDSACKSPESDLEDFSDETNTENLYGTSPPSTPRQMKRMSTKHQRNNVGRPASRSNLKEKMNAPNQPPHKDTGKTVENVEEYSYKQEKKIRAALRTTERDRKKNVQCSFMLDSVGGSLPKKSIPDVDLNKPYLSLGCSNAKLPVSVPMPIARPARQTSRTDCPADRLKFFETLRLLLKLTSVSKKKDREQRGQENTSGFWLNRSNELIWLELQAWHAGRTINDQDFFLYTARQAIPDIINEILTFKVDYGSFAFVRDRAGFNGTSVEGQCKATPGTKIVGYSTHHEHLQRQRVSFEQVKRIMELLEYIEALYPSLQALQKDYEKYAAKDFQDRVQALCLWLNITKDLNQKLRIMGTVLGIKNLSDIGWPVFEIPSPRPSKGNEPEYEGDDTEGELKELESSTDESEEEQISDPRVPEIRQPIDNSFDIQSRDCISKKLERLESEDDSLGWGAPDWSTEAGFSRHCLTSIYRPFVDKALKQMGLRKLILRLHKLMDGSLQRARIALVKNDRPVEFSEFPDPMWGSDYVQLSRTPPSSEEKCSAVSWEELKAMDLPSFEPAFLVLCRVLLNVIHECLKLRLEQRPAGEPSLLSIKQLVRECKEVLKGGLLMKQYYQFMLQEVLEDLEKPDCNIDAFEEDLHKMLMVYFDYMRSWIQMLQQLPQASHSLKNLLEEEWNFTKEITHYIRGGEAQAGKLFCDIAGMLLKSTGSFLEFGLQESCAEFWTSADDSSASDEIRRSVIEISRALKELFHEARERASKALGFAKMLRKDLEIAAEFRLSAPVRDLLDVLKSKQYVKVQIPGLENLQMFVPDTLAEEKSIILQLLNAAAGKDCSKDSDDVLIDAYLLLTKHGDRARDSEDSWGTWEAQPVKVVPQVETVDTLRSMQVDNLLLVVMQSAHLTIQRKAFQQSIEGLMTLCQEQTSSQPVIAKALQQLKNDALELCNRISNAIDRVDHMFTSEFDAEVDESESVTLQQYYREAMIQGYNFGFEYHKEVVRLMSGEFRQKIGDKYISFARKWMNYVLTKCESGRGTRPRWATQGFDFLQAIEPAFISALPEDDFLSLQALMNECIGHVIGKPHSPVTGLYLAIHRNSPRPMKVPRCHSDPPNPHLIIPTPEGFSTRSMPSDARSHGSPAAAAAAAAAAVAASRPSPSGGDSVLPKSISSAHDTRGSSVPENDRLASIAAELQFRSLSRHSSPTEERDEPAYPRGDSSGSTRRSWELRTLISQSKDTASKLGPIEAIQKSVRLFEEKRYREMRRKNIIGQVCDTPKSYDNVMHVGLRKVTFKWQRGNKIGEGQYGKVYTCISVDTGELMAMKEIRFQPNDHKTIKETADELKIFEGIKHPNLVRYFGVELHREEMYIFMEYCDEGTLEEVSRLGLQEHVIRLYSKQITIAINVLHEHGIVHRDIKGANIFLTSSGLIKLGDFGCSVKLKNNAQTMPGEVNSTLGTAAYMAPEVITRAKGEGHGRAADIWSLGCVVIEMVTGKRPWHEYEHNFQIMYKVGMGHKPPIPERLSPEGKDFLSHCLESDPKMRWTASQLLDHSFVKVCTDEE

[6] = 10 µM, read-out: % of control at 10 µM

T1 sequence (O43293 whole entry): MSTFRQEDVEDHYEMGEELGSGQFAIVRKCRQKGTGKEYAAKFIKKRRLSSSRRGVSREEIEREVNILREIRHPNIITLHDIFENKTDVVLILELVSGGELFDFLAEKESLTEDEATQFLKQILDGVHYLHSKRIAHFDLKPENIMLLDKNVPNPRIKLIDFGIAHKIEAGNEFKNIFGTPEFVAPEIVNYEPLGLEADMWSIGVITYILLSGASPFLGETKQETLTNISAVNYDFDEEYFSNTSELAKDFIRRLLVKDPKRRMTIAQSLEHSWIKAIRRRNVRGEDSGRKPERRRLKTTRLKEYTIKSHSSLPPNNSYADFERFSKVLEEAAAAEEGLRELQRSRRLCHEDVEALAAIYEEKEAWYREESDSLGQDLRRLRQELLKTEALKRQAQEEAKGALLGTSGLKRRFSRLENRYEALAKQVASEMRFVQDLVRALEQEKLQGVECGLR

`Nc1cc(C(F)(F)F)c(-c2cc(N3CCOCC3)nc(N3CCOCC3)n2)cn1` [Buparlisib] was tested. Which remaining activity at 1 µM (panel of 442 kinases [1]) did it give?
The remaining activity at 1 µM was 100%.

And the remaining activity at 10 µM (panel of 442 kinases [1]; [6])?
The remaining activity at 10 µM was 100%.

What about the remaining activity at 1 µM (panel of 442 kinases [2]) of the same compound?
The remaining activity at 1 µM was 71%.

What about the remaining activity at 10 µM (panel of 442 kinases [2]; [6]) of the same compound?
Its remaining activity at 10 µM is 100%.

And the remaining activity at 1 µM (panel of 442 kinases [3])?
The remaining activity at 1 µM was 100%.

And the remaining activity at 10 µM (panel of 442 kinases [3]; 10 µM, read-out: STK36 (% of control at 10 µM))?
The remaining activity at 10 µM was 100%.

What about the remaining activity at 1 µM (panel of 442 kinases [4]) of the same compound?
The remaining activity at 1 µM was 100%.

And the remaining activity at 10 µM (panel of 442 kinases [4]; [6])?
Its remaining activity at 10 µM is 91%.

What about the remaining activity at 1 µM (panel of 442 kinases [5]) of the same compound?
The remaining activity at 1 µM was 92%.

What about the remaining activity at 10 µM (panel of 442 kinases [5]; [6]) of the same compound?
Its remaining activity at 10 µM is 100%.

How did the remaining activity at 1 µM (panel of 442 kinases [1]) turn out when `Cn1c(=O)n(-c2ccc(C(C)(C)C#N)cc2)c2c3cc(-c4cnc5ccccc5c4)ccc3ncc21` [Dactolisib, 2-methyl-2-[4-(3-methyl-2-oxo-8-quinolin-3-yl-2,3-dihydroimidazo[4,5-c]quinolin-1-yl)-phenyl] propionitrile] was run?
The remaining activity at 1 µM was 100%.

What about the remaining activity at 1 µM (panel of 442 kinases [2]) of the same compound?
The remaining activity at 1 µM was 100%.

And the remaining activity at 1 µM (panel of 442 kinases [3])?
Its remaining activity at 1 µM is 89%.

What about the remaining activity at 1 µM (panel of 442 kinases [4]) of the same compound?
Its remaining activity at 1 µM is 87%.

And the remaining activity at 1 µM (panel of 442 kinases [5])?
Its remaining activity at 1 µM is 96%.

`COc1ncc(-c2ccc3nccc(-c4ccnnc4)c3c2)cc1NS(=O)(=O)c1ccc(F)cc1F` [Omipalisib] was tested. Which remaining activity at 1 µM (panel of 442 kinases [1]) did it give?
The remaining activity at 1 µM was 100%.

And the remaining activity at 1 µM (panel of 442 kinases [2])?
The remaining activity at 1 µM was 100%.

What about the remaining activity at 1 µM (panel of 442 kinases [3]) of the same compound?
Its remaining activity at 1 µM is 85%.

And the remaining activity at 1 µM (panel of 442 kinases [4])?
The remaining activity at 1 µM was 100%.

What about the remaining activity at 1 µM (panel of 442 kinases [5]) of the same compound?
Its remaining activity at 1 µM is 100%.

What does the source list for `FC(F)c1nc2ccccc2n1-c1nc(N2CCOCC2)nc(N2CCOCC2)n1` [ZSTK474, 2-(difluoromethyl)-1-[4,6-di(4-morpholinyl)-1,3,5-triazin-2-yl]-1H-benzimidazole]?
remaining activity at 1 µM (panel of 442 kinases [1]): 100%; remaining activity at 1 µM (panel of 442 kinases [2]): 90%; remaining activity at 1 µM (panel of 442 kinases [3]): 95%; remaining activity at 1 µM (panel of 442 kinases [4]): 96%; remaining activity at 1 µM (panel of 442 kinases [5]): 97%
